Assays:
[1] = Total emitted dose of the APIs from pMDI prototype formulations, HPLC assay; format: physicochemical; design: unit not given here; settings: pMDI Formulation 1-4; for emitted dose, Mean: Mean of ED 1 to ED 8
Method: An optimized HPLC assay method was developed for the assay of prototype formulations.
The total emitted dose from APIs ED 1 to ED 8 was then analyzed using the HPLC Assay.

[2] = Next Generation Impactor (NGI) testing of pMDI prototype formulations; format: physicochemical; settings: for Fine Particle Dose: Stages 3 to MOC; for Actual Emitted dose: Throat stage to MOC
Method: The Next Generation Pharmaceutical Impactor (NGI) testing is performed using Copley and MSP instruments. Emitted dose or Ex-device is calculated as the total dose deposited in the NGI apparatus starting from Throat stage to Micro-orifice collector (MOC). The Fine Particle Dose (FPD) is calculated as the total dose deposited in Stages 3 to MOC of the NGI apparatus. Mass Median Aerodynamic Diameter (MMAD) and Geometric Standard Deviation (GSD) is calculated from aerodynamic particle size distribution of particles in different stages of the NGI apparatus.

| SMILES | emitted dose ([1]; ED 7) | emitted dose ([1]; ED 8) | emitted dose, Mean [1] | % Emitted dose ([2]; Formulation 1) | % Fine Particle Dose ([2]; Formulation 1) | GSD ([2]; Formulation 1) | MMAD ([2]; Formulation 1) | Fine Particle Dose ([2]; Formulation 1) | Actual Emitted dose ([2]; Formulation 1) | % Emitted dose ([2]; Formulation 4) | % Fine Particle Dose ([2]; Formulation 4) | GSD ([2]; Formulation 4) | MMAD ([2]; Formulation 4) | Fine Particle Dose ([2]; Formulation 4) | Actual Emitted dose ([2]; Formulation 4) | % Emitted dose ([2]; Formulation 2) | % Fine Particle Dose ([2]; Formulation 2) | GSD ([2]; Formulation 2) | MMAD ([2]; Formulation 2) | Fine Particle Dose ([2]; Formulation 2) | also measured |
| --- | --- | --- | --- | --- | --- | --- | --- | --- | --- | --- | --- | --- | --- | --- | --- | --- | --- | --- | --- | --- | --- |
| CCCCCc1cc(O)c2c(c1)OC(C)(CCC=C(C)C)C=C2 (stereo not shown) [CBC, cannabichromene] | 262.4 | 269.8 | 266.1 | 89% | 36% | 3 | 4.5 µm | 108.6 µg | 266.1 µg | 105% | 36% | 3 | 5.2 µm | 71.1 µg | 209.4 µg | – | – | – | – | – | – |
| C=C(C)[C@@H]1CCC(C)=C[C@H]1c1c(O)cc(CCCCC)cc1O [CBD, cannabidiol, reference compound] | 301.6 | 304.3 | 298.0 | 104% | 41% | 3 | 4.6 µm | 122.8 µg | 312.1 µg | 96% | 36% | 3 | 4.75 µm | 109.5 µg | 288.1 µg | 96% | 37% | 3 | 4.5 µm | 111.0 µg | emitted dose ([1]; ED 1): 287.0; emitted dose ([1]; ED 2): 289.2; emitted dose ([1]; ED 3): 308.0; emitted dose ([1]; ED 4): 316.2; emitted dose ([1]; ED 5): 284.9; emitted dose ([1]; ED 6): 292.6; Actual Emitted dose ([2]; Formulation 2): 288.7 µg; % Emitted dose ([2]; Formulation 3): 101%; % Fine Particle Dose ([2]; Formulation 3): 40%; GSD ([2]; Formulation 3): 3; MMAD ([2]; Formulation 3): 4.4 µm; Fine Particle Dose ([2]; Formulation 3): 120.8 µg; Actual Emitted dose ([2]; Formulation 3): 303.0 µg |
| C=C(C)[C@@H]1CCC(C)=C[C@H]1c1c(O)cc(CCC)cc1O [CBDV, cannabidivarin] | 265.4 | 278.5 | 272.0 | – | – | – | – | – | – | 98% | 33% | 3 | 5.1 µm | 66.5 µg | 195.2 µg | – | – | – | – | – | % Emitted dose ([2]; Formulation 3): 91%; % Fine Particle Dose ([2]; Formulation 3): 36%; GSD ([2]; Formulation 3): 3; MMAD ([2]; Formulation 3): 4.6 µm; Fine Particle Dose ([2]; Formulation 3): 108.0 µg; Actual Emitted dose ([2]; Formulation 3): 272.0 µg |
| CCCCCc1cc(O)c(C/C=C(\C)CCC=C(C)C)c(O)c1 [CBG, cannabigerol] | 331.0 | 332.1 | 335.2 | 115% | 43% | 3 | 4.7 µm | 129.5 µg | 345.7 µg | 106% | 34% | 3 | 5.25 µm | 67.5 µg | 212.1 µg | 109% | 39% | 3 | 4.65 µm | 118.0 µg | emitted dose ([1]; ED 3): 338.2; emitted dose ([1]; ED 4): 353.3; emitted dose ([1]; ED 5): 323.7; emitted dose ([1]; ED 6): 332.9; Actual Emitted dose ([2]; Formulation 2): 328.3 µg; % Emitted dose ([2]; Formulation 3): 111%; % Fine Particle Dose ([2]; Formulation 3): 43%; GSD ([2]; Formulation 3): 3; MMAD ([2]; Formulation 3): 4.5 µm; Fine Particle Dose ([2]; Formulation 3): 127.5 µg; Actual Emitted dose ([2]; Formulation 3): 331.6 µg |
| CCCCCc1cc(O)c2c(c1)OC(C)(C)c1ccc(C)cc1-2 [CBN, cannabinol] | 255.7 | 263.5 | 259.6 | – | – | – | – | – | – | 95% | 34% | 3 | 5 µm | 68.2 µg | 189.1 µg | 87% | 35% | 3 | 4.4 µm | 105.8 µg | Actual Emitted dose ([2]; Formulation 2): 259.6 µg |
| C[N+]1(C)CCC(OC(=O)C(O)(c2ccccc2)C2CCCC2)C1 (stereo not shown) [Glycopyrronium, glycopyrronium, reference compound] | 27.0 | 30.2 | 29.0 | 104% | 29% | 2 | 4.9 µm | 7.8 µg | 28.0 µg | 104% | 25% | 2 | 5.65 µm | 6.8 µg | 28.1 µg | 116% | 28% | 2 | 5.15 µm | 7.7 µg | emitted dose ([1]; ED 1): 27.6; emitted dose ([1]; ED 2): 28.7; emitted dose ([1]; ED 3): 27.5; emitted dose ([1]; ED 4): 28.5; emitted dose ([1]; ED 5): 30.3; emitted dose ([1]; ED 6): 32.4; Actual Emitted dose ([2]; Formulation 2): 31.4 µg; % Emitted dose ([2]; Formulation 3): 106%; % Fine Particle Dose ([2]; Formulation 3): 31%; GSD ([2]; Formulation 3): 2; MMAD ([2]; Formulation 3): 5.1 µm; Fine Particle Dose ([2]; Formulation 3): 8.3 µg; Actual Emitted dose ([2]; Formulation 3): 28.6 µg |

Reference: patent US20240325413A1, “FORMULATIONS FOR THE TREATMENT OF RESPIRATORY DISORDERS” (484 Science Corp, priority 2021, published 2024)
